One experiment addresses T1, JH2 domain of human Tyk2 (Homo sapiens, UniProt P29597).
T1 construct: 10×His-tagged TYK2 JH2 domain (amino acid 575-876)
Description: JH2 biochemical assay (TR-FRET probe displacement). In kind it is binding. As to conditions: JH2 biochemical assay. The gist of the method:
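10×His-tagged human TYK2 JH2 (aa 575-876, 2 nM) incubated 60 min with 2 nM fluorescent probe, 0.1 nM Tb anti-His antibody and compound (10-point 3-fold series from […] top). TR-FRET 520/495 nm ratio, falling with probe displacement, normalized and fitted to a 4-parameter logistic for IC50.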

For experiment [1], the system named is Tyk2 kinase activity on STAT4. Description: pSTAT4 cell assay (MSD, NK92 cells). As to conditions: compounds 1 hr, stimulated 15 minutes. In kind it is cell-based. The method in brief: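 Serum-starved NK92 cells, which natively express Tyk2 and STAT4, were pretreated for 1 h with a 10-point 4-fold dilution series from 10 μM. They were then stimulated with 30 ng/mL IL2 for 15 min. Phospho-STAT in lysates was quantified by MSD with anti-STAT4 antibodies, and IC50 was obtained from 4-parameter logistic fits.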

Where a name gives a salt, the structure may show the parent alone. Where only a bound is given, the exact number is not on record here.

T1 sequence (P29597 575-876): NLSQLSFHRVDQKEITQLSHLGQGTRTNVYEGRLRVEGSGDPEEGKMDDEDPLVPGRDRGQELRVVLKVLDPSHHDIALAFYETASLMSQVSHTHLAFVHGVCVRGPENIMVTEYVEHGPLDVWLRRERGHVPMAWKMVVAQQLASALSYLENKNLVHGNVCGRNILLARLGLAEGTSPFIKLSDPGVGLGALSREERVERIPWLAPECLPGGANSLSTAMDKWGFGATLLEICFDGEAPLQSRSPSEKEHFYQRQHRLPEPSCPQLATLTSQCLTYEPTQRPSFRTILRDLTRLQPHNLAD

As a reminder, the IC50 is the concentration needed to halve the response being measured. High values mean lower potency, low ones higher potency. On to `CC(=O)Nc1cc2c(cn1)C1(CC1)CN2c1cc(NCCCF)nc(C(C)(F)F)n1` [Example 164, N-(1′-(2-(1,1-difluoroethyl)-6-((3-fluoropropyl)amino)pyrimidin-4-yl)-1′,2′-dihydrospiro[cyclopropane-1,3′-pyrrolo[3,2-c]pyridin]-6′-yl)acetamide trifluoroacetate], for which the concentration for half-maximal inhibition (IC50) at JH2 domain of human Tyk2 was no more than 0.01 µM; in experiment [1], 0.01 to 0.1 µM.
Consider `CO[C@@H](C)[C@H](C)Nc1cc(N2CC3(CC3)c3cnc(NC(C)=O)cc32)nc(C(C)(F)F)n1` [Example 165, N-(1′-(2-(1,1-difluoroethyl)-6-(((2S,3S)-3-methoxybutan-2-yl)amino)pyrimidin-4-yl)-1′,2′-dihydrospiro[cyclopropane-1,3′-pyrrolo[3,2-c]pyridin]-6′-yl)acetamide trifluoroacetate], for which the concentration for half-maximal inhibition (IC50) at JH2 domain of human Tyk2 is no more than 0.01 µM; in experiment [1], 0.01 to 0.1 µM.
The matching figures for `CC(=O)Nc1cc2c(cn1)C1(CC1)CN2c1cc(NC2CSC2)nc(C(C)(F)F)n1` [Example 166, N-(1′-(2-(1,1-difluoroethyl)-6-(thietan-3-ylamino)pyrimidin-4-yl)-1′,2′-dihydrospiro[cyclopropane-1,3′-pyrrolo[3,2-c]pyridin]-6′-yl)acetamide trifluoroacetate]: no more than 0.01 µM and 0.01 to 0.1 µM.
The like results for `CCNc1cc(N2CC3(CC3)c3cnc(NC(C)=O)cc32)nc(C(C)(F)F)n1` [Example 167, N-(1′-(2-(1,1-difluoroethyl)-6-(ethylamino)pyrimidin-4-yl)-1′,2′-dihydrospiro[cyclopropane-1,3′-pyrrolo[3,2-c]pyridin]-6′-yl)acetamide trifluoroacetate] were, in that order, no more than 0.01 µM and 0.1 to 1 µM.
The like results for `CC(=O)Nc1cc2c(cn1)C1(CC1)CN2c1cc(N[C@H]2C[C@@H](F)C2)nc(C(C)(F)F)n1` [Example 168, N-(1′-(2-(1,1-difluoroethyl)-6-(((1s,3s)-3-fluorocyclobutyl)amino)pyrimidin-4-yl)-1′,2′-dihydrospiro[cyclopropane-1,3′-pyrrolo[3,2-c]pyridin]-6′-yl)acetamide trifluoroacetate] were, in that order, 0.01 to 0.1 µM and 0.1 to 1 µM.
With `CC(=O)Nc1cc2c(cn1)C1(CC1)CN2c1cc(NCC(C)F)nc(C(C)(F)F)n1` (centres unmarked) [Example 169, N-(1′-(2-(1,1-difluoroethyl)-6-((2-fluoropropyl)amino)pyrimidin-4-yl)-1′,2′-dihydrospiro[cyclopropane-1,3′-pyrrolo[3,2-c]pyridin]-6′-yl)acetamide trifluoroacetate], the IC50 at JH2 domain of human Tyk2 is no more than 0.01 µM; in experiment [1], 0.01 to 0.1 µM.
The like results for `CC(=O)Nc1cc2c(cn1)C1(CC1)CN2c1cc(NCCC(C)F)nc(C(C)(F)F)n1` (centres unmarked) [Example 170, N-(1′-(2-(1,1-difluoroethyl)-6-((3-fluorobutyl)amino)pyrimidin-4-yl)-1′,2′-dihydrospiro[cyclopropane-1,3′-pyrrolo[3,2-c]pyridin]-6′-yl)acetamide trifluoroacetate] were, in that order, no more than 0.01 µM and 0.01 to 0.1 µM.
In the case of `COC(C)CNc1cc(N2CC3(CC3)c3cnc(NC(C)=O)cc32)nc(C(C)(F)F)n1` (centres unmarked) [Example 171, N-(1′-(2-(1,1-difluoroethyl)-6-((2-methoxypropyl)amino)pyrimidin-4-yl)-1′,2′-dihydrospiro[cyclopropane-1,3′-pyrrolo[3,2-c]pyridin]-6′-yl)acetamide trifluoroacetate], the 50% inhibitory concentration (IC50) at JH2 domain of human Tyk2 was no more than 0.01 µM; in experiment [1], 0.01 to 0.1 µM.
Consider `CO[C@H]1C[C@@H](Nc2cc(N3CC4(CC4)c4cnc(NC(C)=O)cc43)nc(C(C)(F)F)n2)C1` [Example 172, N-(1′-(2-(1,1-difluoroethyl)-6-(((1s,3s)-3-methoxycyclobutyl)amino)pyrimidin-4-yl)-1′,2′-dihydrospiro[cyclopropane-1,3′-pyrrolo[3,2-c]pyridin]-6′-yl)acetamide trifluoroacetate], for which the IC50 at JH2 domain of human Tyk2 is no more than 0.01 µM; in experiment [1] it was 0.01 to 0.1 µM.
For the compound `COC1(C)CC1Nc1cc(N2CC3(CC3)c3cnc(NC(C)=O)cc32)nc(C(C)(F)F)n1` (centres unmarked) [Example 173, N-(1′-(2-(1,1-difluoroethyl)-6-((2-methoxy-2-methylcyclopropyl)amino)pyrimidin-4-yl)-1′,2′-dihydrospiro[cyclopropane-1,3′-pyrrolo[3,2-c]pyridin]-6′-yl)acetamide trifluoroacetate], the results for the 50% inhibitory concentration (IC50) (on JH2 domain of human Tyk2; in experiment [1]) were no more than 0.01 µM and 0.01 to 0.1 µM, respectively.
Turning to `CC(=O)Nc1cc2c(cn1)C1(CC1)CN2c1cc(NCC2CCN2C)nc(C(C)(F)F)n1` (centres unmarked) [Example 174, N-(1′-(2-(1,1-difluoroethyl)-6-(((1-methylazetidin-2-yl)methyl)amino)pyrimidin-4-yl)-1′,2′-dihydrospiro[cyclopropane-1,3′-pyrrolo[3,2-c]pyridin]-6′-yl)acetamide], the half-inhibitory concentration (IC50) at JH2 domain of human Tyk2 is 0.01 to 0.1 µM; in experiment [1], no less than 1 µM.
The matching figures for `CC(=O)Nc1cc2c(cn1)C1(CC1)CN2c1cc(NC(C)C2COC2)nc(C(C)(F)F)n1` (centres unmarked) [Example 175, N-(1′-(2-(1,1-difluoroethyl)-6-((1-(oxetan-3-yl)ethyl)amino)pyrimidin-4-yl)-1′,2′-dihydrospiro[cyclopropane-1,3′-pyrrolo[3,2-c]pyridin]-6′-yl)acetamide]: no more than 0.01 µM and 0.1 to 1 µM.
The like results for `CC(=O)Nc1cc2c(cn1)C1(CC1)CN2c1cc(NC2CC23CC3)nc(C(C)(F)F)n1` (centres unmarked) [Example 176, N-(1′-(2-(1,1-difluoroethyl)-6-(spiro[2.2]pentan-1-ylamino)pyrimidin-4-yl)-1′,2′-dihydrospiro[cyclopropane-1,3′-pyrrolo[3,2-c]pyridin]-6′-yl)acetamide trifluoroacetate] were, in that order, no more than 0.01 µM and 0.01 to 0.1 µM.
The matching figures for `COC1CC1Nc1cc(N2CC3(CC3)c3cnc(NC(C)=O)cc32)nc(C(C)(F)F)n1` (centres unmarked) [Example 177, N-(1′-(2-(1,1-difluoroethyl)-6-((2-methoxycyclopropyl)amino)pyrimidin-4-yl)-1′,2′-dihydrospiro[cyclopropane-1,3′-pyrrolo[3,2-c]pyridin]-6′-yl)acetamide]: no more than 0.01 µM and 0.01 to 0.1 µM.
In the case of `COCC(C)Nc1cc(N2CC3(CC3)c3cnc(NC(C)=O)cc32)nc(C(C)(F)F)n1` (centres unmarked) [Example 178, N-(1′-(2-(1,1-difluoroethyl)-6-((1-methoxypropan-2-yl)amino)pyrimidin-4-yl)-1′,2′-dihydrospiro[cyclopropane-1,3′-pyrrolo[3,2-c]pyridin]-6′-yl)acetamide trifluoroacetate], the values for the IC50 (on JH2 domain of human Tyk2; in experiment [1]) were no more than 0.01 µM and 0.01 to 0.1 µM, respectively.
Consider `CC(=O)Nc1cc2c(cn1)C1(CC1)CN2c1cc(NC2CCOC2)nc(C(C)(F)F)n1` (centres unmarked) [Example 179, N-(1′-(2-(1,1-difluoroethyl)-6-((tetrahydrofuran-3-yl)amino)pyrimidin-4-yl)-1′,2′-dihydrospiro[cyclopropane-1,3′-pyrrolo[3,2-c]pyridin]-6′-yl)acetamide trifluoroacetate], for which the IC50 on JH2 domain of human Tyk2 was no more than 0.01 µM; in experiment [1], 0.01 to 0.1 µM.
The like results for `CC(=O)Nc1cc2c(cn1)C1(CC1)CN2c1cc(NCC(C)N(C)C)nc(C(C)(F)F)n1` (centres unmarked) [Example 180, N-(1′-(2-(1,1-difluoroethyl)-6-((2-(dimethylamino)propyl)amino)pyrimidin-4-yl)-1′,2′-dihydrospiro[cyclopropane-1,3′-pyrrolo[3,2-c]pyridin]-6′-yl)acetamide trifluoroacetate] were, in that order, 0.01 to 0.1 µM and 0.1 to 1 µM.
The matching figures for `CC(=O)Nc1cc2c(cn1)C1(CC1)CN2c1cc(NC2CCSC2)nc(C(C)(F)F)n1` (centres unmarked) [Example 181, N-(1′-(2-(1,1-difluoroethyl)-6-((tetrahydrothiophen-3-yl)amino)pyrimidin-4-yl)-1′,2′-dihydrospiro[cyclopropane-1,3′-pyrrolo[3,2-c]pyridin]-6′-yl)acetamide]: no more than 0.01 µM and 0.01 to 0.1 µM.
The like results for `CC(=O)Nc1cc2c(cn1)C1(CC1)CN2c1cc(NC2CC2C)nc(C(C)(F)F)n1` (centres unmarked) [Example 182, N-(1′-(2-(1,1-difluoroethyl)-6-((2-methylcyclopropyl)amino)pyrimidin-4-yl)-1′,2′-dihydrospiro[cyclopropane-1,3′-pyrrolo[3,2-c]pyridin]-6′-yl)acetamide trifluoroacetate] were, in that order, no more than 0.01 µM and 0.01 to 0.1 µM.
In the case of `CC(=O)Nc1cc2c(cn1)C1(CC1)CN2c1cc(C)cc(N2CCN(C)C(C(F)F)C2)n1` (centres unmarked) [Example 183, N-(1′-(6-(3-(difluoromethyl)-4-methylpiperazin-1-yl)-4-methylpyridin-2-yl)-1′,2′-dihydrospiro[cyclopropane-1,3′-pyrrolo[3,2-c]pyridin]-6′-yl)acetamide], the IC50 at JH2 domain of human Tyk2 is 0.1 to 1 µM; in experiment [1] it was no less than 1 µM.
The like results for `CC(=O)Nc1cc2c(cn1)C1(CC1)CN2c1cc(C)cc(N2CCC(F)(F)C2)n1` [Example 184, N-(1′-(6-(3,3-difluoropyrrolidin-1-yl)-4-methylpyridin-2-yl)-1′,2′-dihydrospiro[cyclopropane-1,3′-pyrrolo[3,2-c]pyridin]-6′-yl)acetamide] were, in that order, 0.01 to 0.1 µM and 0.1 to 1 µM.
The matching figures for `COCCOC1CCN(c2cc(C)cc(N3CC4(CC4)c4cnc(NC(C)=O)cc43)n2)C1` (centres unmarked) [Example 185, N-(1′-(6-(3-(2-methoxyethoxy)pyrrolidin-1-yl)-4-methylpyridin-2-yl)-1′,2′-dihydrospiro[cyclopropane-1,3′-pyrrolo[3,2-c]pyridin]-6′-yl)acetamide]: 0.1 to 1 µM and no less than 1 µM.

Values taken from patent publication US20260258032A1, “TYROSINE KINASE 2 INHIBITORS AND USES THEREOF” (BIOGEN MA INC., priority 2022, published 2026).
